Results published in patent US9533987B2, “Heterocyclic derivates” (KALVISTA PHARMACEUTICALS LIMITED, priority 2013, dated 2017).
pIC50: −log10 of the molar value.

What was measured:
Human plasma kallikrein = Human plasma kallikrein (Homo sapiens (Human), UniProt P03952); assay: Determination of the IC50 for plasma kallikrein (fluorogenic substrate H-DPro-Phe-Arg-AFC); type: biochemical; conditions: 37° C., read-out: IC50 (human PKaI)
Description: Determination of the IC50 for Plasma Kallikrein
(§1) Human plasma kallikrein (Protogen) was incubated at 37° C. with the fluorogenic substrate H-DPro-Phe-Arg-AFC and various concentrations of the test compound. Residual enzyme activity (initial rate of reaction) was determined by measuring the change in […] at 410 nm and the IC50 value for the test compound was determined.

Factor XIIa = Factor XIIa (Homo sapiens (Human), UniProt P00748); assay: Determination of enzyme selectivity, Factor XIIa; type: biochemical; conditions: substrate at Km concentration
Sequence of Factor XIIa (P00748 373-615): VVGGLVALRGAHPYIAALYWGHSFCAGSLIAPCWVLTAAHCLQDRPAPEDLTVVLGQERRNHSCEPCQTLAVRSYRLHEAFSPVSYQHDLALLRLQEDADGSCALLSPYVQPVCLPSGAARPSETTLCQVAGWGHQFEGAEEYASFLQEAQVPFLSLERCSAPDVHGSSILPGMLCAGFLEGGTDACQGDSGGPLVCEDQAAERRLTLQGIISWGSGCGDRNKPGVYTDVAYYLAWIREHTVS
Description: Determination of Enzyme Selectivity
Human serine protease enzymes plasmin, thrombin, trypsin, Factor Xa and Factor XIIa were assayed for enzymatic activity using an appropriate fluorogenic substrate. Protease activity was measured by monitoring the accumulation of liberated fluorescence from the substrate over 5 minutes. The linear rate of fluorescence increase per minute was expressed as percentage (%) activity. The Km for the cleavage of each substrate was determined by standard transformation of the Michaelis-Menten equation.

[1] = Pharmacokinetics following a single oral dose in male Sprague-Dawley rats; type: in vivo; conditions: rat, single po dose 10 mg/kg, plasma
Description: Pharmacokinetic studies of the compounds in Table 16 were performed to assess the pharmacokinetics following a single oral dose in male Sprague-Dawley rats. […] Following dosing, blood samples were collected over a period of 24 hours. Sample times were 5, 15 and 30 minutes then 1, 2, 4, 6, 8, 12 and 24 hours. Following collection, blood samples were centrifuged and the plasma fraction analysed for concentration of test compound by LCMS.

Human KLK1 = Human KLK1 (Homo sapiens (Human), UniProt P06870); assay: Determination of the IC50 for KLK1 (fluorogenic substrate H-DVal-Leu-Arg-AFC); type: biochemical; conditions: 37° C.
Sequence of Human KLK1 (P06870 25-262): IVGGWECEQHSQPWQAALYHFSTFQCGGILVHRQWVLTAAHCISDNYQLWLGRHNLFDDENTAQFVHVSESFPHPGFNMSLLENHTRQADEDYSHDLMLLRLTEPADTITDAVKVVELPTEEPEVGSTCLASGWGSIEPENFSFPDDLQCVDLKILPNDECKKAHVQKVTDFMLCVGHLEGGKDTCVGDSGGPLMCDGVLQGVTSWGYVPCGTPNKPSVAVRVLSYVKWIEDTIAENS
Description: Determination of the IC50 for KLK1
as §1, with “KLK1 (Callbiochem)” for “plasma kallikrein (Protogen)”, “H-DVal-Leu-Arg-AFC” for “H-DPro-Phe-Arg-AFC”

Sequence of Human plasma kallikrein (P03952 391-638): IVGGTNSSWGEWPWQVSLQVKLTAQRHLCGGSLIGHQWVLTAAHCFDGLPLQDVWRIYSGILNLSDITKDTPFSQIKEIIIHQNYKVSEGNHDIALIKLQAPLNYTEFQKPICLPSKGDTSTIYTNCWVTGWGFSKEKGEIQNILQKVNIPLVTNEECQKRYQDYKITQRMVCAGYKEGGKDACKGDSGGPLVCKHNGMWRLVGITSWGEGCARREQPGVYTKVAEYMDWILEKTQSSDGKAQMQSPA
Sequence of Human plasma kallikrein (P03952 20-390 partner): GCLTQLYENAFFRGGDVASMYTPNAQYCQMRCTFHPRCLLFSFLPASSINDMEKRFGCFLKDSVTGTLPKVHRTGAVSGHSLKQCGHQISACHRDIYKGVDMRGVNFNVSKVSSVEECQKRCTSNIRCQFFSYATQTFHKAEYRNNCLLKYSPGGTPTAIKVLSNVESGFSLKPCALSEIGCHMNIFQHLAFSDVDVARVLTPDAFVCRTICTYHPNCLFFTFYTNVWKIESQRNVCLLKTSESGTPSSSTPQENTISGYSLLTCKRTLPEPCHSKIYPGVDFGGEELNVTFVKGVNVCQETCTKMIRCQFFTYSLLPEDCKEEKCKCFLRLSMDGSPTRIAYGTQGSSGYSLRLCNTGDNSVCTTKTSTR

Structure (SMILES)	pIC50 (Human plasma kallikrein)	IC50 (Factor XIIa) [nM]	Cmax [1] [ng/mL]	Tmax [1] [min]	pIC50 (Human KLK1)
Cc1cnn(Cc2ccc(Cn3cc(C(=O)NCc4ccc5c(N)nccc5c4)c(C)n3)cc2)c1 [Example 11, 3-Methyl-1-[4-(4-methyl-pyrazol-1-ylmethyl)-benzyl]-1H-pyrazole-4-carboxylic acid (1-amino-isoquinolin-6-ylmethyl)-amide]	8.72	> 10000	134	23	5.05
Cc1cnn(Cc2ccc(Cn3cc(C(=O)NCc4ccc5c(N)nccc5c4)c(C4CC4)n3)cc2)c1 [Example 12, 3-Cyclopropyl-1-[4-(4-methyl-pyrazol-1-ylmethyl)-benzyl]-1H-pyrazole-4-carboxylic acid (1-amino-isoquinolin-6-ylmethyl)-amide]	8.59	> 10000	155	30	5.22
C[C@H]1CCN(c2ccc(Cn3cc(C(=O)NCc4ccc5c(N)nccc5c4)c(C(F)(F)F)n3)cn2)C1 [Example 59, 1-[6-((S)-3-Methyl-pyrrolidin-1-yl)-pyridin-3-ylmethyl]-3-trifluoromethyl-1H-pyrazole-4-carboxylic acid (1-amino-isoquinolin-6-ylmethyl)-amide]	8.23	> 1000	–	–	5.40
Nc1nccc2cc(CNC(=O)c3cn(Cc4ccc(N5CC[C@H](F)C5)nc4)nc3C(F)(F)F)ccc12 [Example 60, 1-[6-((S)-3-Fluoro-pyrrolidin-1-yl)-pyridin-3-ylmethyl]-3-trifluoromethyl-1H-pyrazole-4-carboxylic acid (1-amino-isoquinolin-6-ylmethyl)-amide]	8.02	> 10000	–	–	5.02
Nc1nccc2cc(CNC(=O)c3cn(Cc4ccc(N5CC[C@@H](F)C5)nc4)nc3C(F)(F)F)ccc12 [Example 61, 1-[6-((R)-3-Fluoro-pyrrolidin-1-yl)-pyridin-3-ylmethyl]-3-trifluoromethyl-1H-pyrazole-4-carboxylic acid (1-amino-isoquinolin-6-ylmethyl)-amide]	7.74	> 10000	–	–	5.12
C[C@H]1CCCN1c1ccc(Cn2cc(C(=O)NCc3ccc4c(N)nccc4c3)c(C(F)(F)F)n2)cn1 [Example 62, 1-[6-((S)-2-Methyl-pyrrolidin-1-yl)-pyridin-3-ylmethyl]-3-trifluoromethyl-1H-pyrazole-4-carboxylic acid (1-amino-isoquinolin-6-ylmethyl)-amide]	7.87	> 10000	–	–	< 5.00
C[C@@H]1CCCN1c1ccc(Cn2cc(C(=O)NCc3ccc4c(N)nccc4c3)c(C(F)(F)F)n2)cn1 [Example 63, 1-[6-((R)-2-Methyl-pyrrolidin-1-yl)-pyridin-3-ylmethyl]-3-trifluoromethyl-1H-pyrazole-4-carboxylic acid (1-amino-isoquinolin-6-ylmethyl)-amide]	7.91	> 10000	–	–	5.24
C[C@@H]1CCN(c2cc(Cn3cc(C(=O)NCc4ccc5c(N)nccc5c4)c(C(F)(F)F)n3)ccn2)C1 [Example 67, 1-[2-((R)-3-Methyl-pyrrolidin-1-yl)-pyridin-4-ylmethyl]-3-trifluoromethyl-1H-pyrazole-4-carboxylic acid (1-amino-isoquinolin-6-ylmethyl)-amide]	6.97	> 10000	–	–	5.05
C[C@H]1CCN(c2cc(Cn3cc(C(=O)NCc4ccc5c(N)nccc5c4)c(C(F)(F)F)n3)ccn2)C1 [Example 68, 1-[2-((S)-3-Methyl-pyrrolidin-1-yl)-pyridin-4-ylmethyl]-3-trifluoromethyl-1H-pyrazole-4-carboxylic acid (1-amino-isoquinolin-6-ylmethyl)-amide]	7.23	> 10000	–	–	5.01
Cc1nc(C)c(N(C)Cc2ccc(Cn3cc(C(=O)NCc4cnc5[nH]ccc5c4)cn3)cc2)s1 [Example 105, 1-(4-{[(2,4-Dimethyl-thiazol-5-yl)-methyl-amino]-methyl}-benzyl)-1H-pyrazole-4-carboxylic acid (1H-pyrrolo[2,3-b]pyridin-5-ylmethyl)-amide]	4.77	> 40000	–	–	< 4.40
O=C(NCc1cnc2[nH]ccc2c1)c1cnn(Cc2cccc(Oc3ncccc3F)c2)c1 [Example 106, 1-[3-(3-Fluoro-pyridin-2-yloxy)-benzyl]-1H-pyrazole-4-carboxylic acid (1H-pyrrolo[2,3-b]pyridin-5-ylmethyl)-amide]	4.92	> 40000	–	–	< 4.40
O=C(NCc1cnc2[nH]ccc2c1)c1cnn(Cc2ccc(Oc3ccccn3)cc2)c1 [Example 107, 1-[4-(Pyridin-2-yloxy)-benzyl]-1H-pyrazole-4-carboxylic acid (1H-pyrrolo[2,3-b]pyridin-5-ylmethyl)-amide]	5.64	> 40000	–	–	4.42
O=C(NCc1cnc2[nH]ccc2c1)c1cnn(Cc2cccc(Oc3ccccc3)c2)c1 [Example 108, 1-(3-Phenoxy-benzyl)-1H-pyrazole-4-carboxylic acid (1H-pyrrolo[2,3-b]pyridin-5-ylmethyl)-amide]	4.66	> 40000	–	–	4.69
O=C(NCc1cnc2[nH]ccc2c1)c1cnn(Cc2ccc(COc3cccc(F)n3)cc2)c1 [Example 109, 1-[4-(6-Fluoro-pyridin-2-yloxymethyl)-benzyl]-1H-pyrazole-4-carboxylic acid (1H-pyrrolo[2,3-b]pyridin-5-ylmethyl)-amide]	5.38	> 40000	–	–	< 4.40
Cc1cnn(Cc2ccc(Cn3cc(C(=O)NCc4ccc5[nH]c(C)cc5c4)c(C(F)(F)F)n3)cc2)c1 [Example 110, 1-[4-(4-Methyl-pyrazol-1-ylmethyl)-benzyl]-3-trifluoromethyl-1H-pyrazole-4-carboxylic acid (2-methyl-1H-indol-5-ylmethyl)-amide]	6.25	> 10000	–	–	< 5.00
Cc1cnn(Cc2ccc(Cn3cc(C(=O)NCc4ccc5[nH]ncc5c4)c(C(F)(F)F)n3)cc2)c1 [Example 111, 1-[4-(4-Methyl-pyrazol-1-ylmethyl)-benzyl]-3-trifluoromethyl-1H-pyrazole-4-carboxylic acid (1H-indazol-5-ylmethyl)-amide]	6.66	> 10000	–	–	5.14
Cc1cnn(Cc2ccc(Cn3cc(C(=O)NCc4ccc5[nH]ccc5c4)c(C(F)(F)F)n3)cc2)c1 [Example 112, 1-[4-(4-Methyl-pyrazol-1-ylmethyl)-benzyl]-3-trifluoromethyl-1H-pyrazole-4-carboxylic acid (1H-indol-5-ylmethyl)-amide]	7.22	> 10000	–	–	< 5.00
Cc1cnn(Cc2ccc(Cn3cc(C(=O)NCc4cnc5[nH]ccc5c4)nn3)cc2)c1 [Example 115, 1-[4-(4-Methyl-pyrazol-1-ylmethyl)-benzyl]-1H-[1,2,3]triazole-4-carboxylic acid (1H-pyrrolo[2,3-b]pyridin-5-ylmethyl)-amide]	6.75	> 10000	–	–	< 5.00
Cc1cnn(Cc2ccc(Cn3cc(C(=O)NCc4cc5cc[nH]c5nc4C)nn3)cc2)c1 [Example 116, 1-[4-(4-Methyl-pyrazol-1-ylmethyl)-benzyl]-1H-[1,2,3]triazole-4-carboxylic acid (6-methyl-1H-pyrrolo[2,3-b]pyridin-5-ylmethyl)-amide]	6.29	> 10000	–	–	< 5.00
Cc1cnn(Cc2ccc(Cn3cc(C(=O)NCc4c(C)nc5[nH]ccc5c4C)cn3)cc2)c1 [Example 118, 1-[4-(4-Methyl-pyrazol-1-ylmethyl)-benzyl]-1H-pyrazole-4-carboxylic acid (4,6-dimethyl-1H-pyrrolo[2,3-b]pyridin-5-ylmethyl)-amide]	7.85	> 40000	–	–	< 4.40
Cc1cnn(Cc2ccc(Cn3cc(C(=O)NCc4cnc5[nH]ccc5c4)c(C4CC4)n3)cc2)c1 [Example 120, 3-Cyclopropyl-1-[4-(4-methyl-pyrazol-1-ylmethyl)-benzyl]-1H-pyrazole-4-carboxylic acid (1H-pyrrolo[2,3-b]pyridin-5-ylmethyl)-amide]	6.93	> 10000	–	–	< 5.00
Cc1cnn(Cc2ccc(Cn3cc(C(=O)NCc4cccc5[nH]ccc45)c(C(F)(F)F)n3)cc2)c1 [Example 123, 1-[4-(4-Methyl-pyrazol-1-ylmethyl)-benzyl]-3-trifluoromethyl-1H-pyrazole-4-carboxylic acid (1H-indol-4-ylmethyl)-amide]	6.26	> 10000	–	–	< 5.00
Cc1cnn(Cc2ccc(Cn3cc(C(=O)NCc4cccc5[nH]ncc45)c(C(F)(F)F)n3)cc2)c1 [Example 124, 1-[4-(4-Methyl-pyrazol-1-ylmethyl)-benzyl]-3-trifluoromethyl-1H-pyrazole-4-carboxylic acid (1H-indazol-4-ylmethyl)-amide]	6.84	> 10000	–	–	5.14
